For this assay, the system named is CMPTX-labeled tumor cells across HMVEC-DBl. Briefly: modified Boyden chamber, trans-endothelial tumor cell migration, HMVEC-DBl. It is filed as cell-based, human. Particulars: Fig1E. As to the method: ECs were first treated with Vasculotide (VT), PBS (vehicle/negative control), Ang1 (positive control), PEG-Cys (polyethylene glycol backbone), T7c (non-PEGylated CHHHRHSF peptides), or VT in the presence of 100-fold molar excess of T7c. The concentrations used, 10–20 ng/mL VT and 200–400 ng/mL Ang1, are estimated molar equivalents (0.71–1.43 nM). Thirty minutes later, ECs were stimulated with thrombin, 0.1% BSA (vehicle/negative control), or EDTA (positive control). Another 30mins later, the amount of FITC-dextran diffusion into the lower chambers (A, D) provides a measure of endothelial permeability. CMTPX-labeled tumor cells (TCs) were then dispensed into inserts, and the amount of TC fluorescence emitting from the underside of insert membranes after 20 h (B–C) or 28 h (E) reflects the efficiency of trans-endothelial TC migration. […] Three experiments (twice with HMVEC-LBl and once with HMVEC-DBl) were run with n = 3–5 inserts (independent biological replicates) per group and analyzed by two-sampled unpaired t-tests. […]
Endothelial cells (ECs) were grown on cell culture inserts with uncoated 8-μm-pore PET filter membranes to 100% confluency. […] After 30 min of thrombin stimulation or 4–6 h of TC-CM stimulation, FITC fluorescence (ex/em = 490/520 nm) was measured from a 50 μl sample of the lower chamber media. […]

“CHHHRHSF [Vasculotide, 4-armed maleimide-functionalized polyethylene glycol (PEG) backbone to link together four cysteine-capped T7 peptides, that is, CHHHRHSF]”: the “TC migration effect of VT in presence of 100-fold molar excess of T7c” value is “dampened the effects of VT”. For the same sequence, the “thrombin-stimulated migration of CMTPX-labeled TCs” value (28 h) is listed as “trends of reducing thrombin-stimulated migration”.

Source of the values: article PMC4459817, “Vasculotide reduces endothelial permeability and tumor cell extravasation in the absence of binding to or agonistic activation of Tie2” (EMBO Molecular Medicine, 2015).
